Common to all, as to type: cell-based
Assay [1] deals with Wnt activity (Wnt-responsive human Sp5 promoter, TCF/LEF binding sites) in SW480 colon carcinoma cells. In words: Wnt activity screening assay: Sp5-Luc luciferase reporter gene in SW480 cells. Particulars: 10-point dose-response from 10 μM, incubated overnight. The text has this: The screening assay for Wnt activity is described as follows. Reporter cell lines can be generated by stably transducing cancer cell lines (e.g., colon cancer) or primary cells (e.g., IEC-6 intestinal cells) with a lentiviral construct that includes a Wnt-responsive promoter driving expression of the firefly luciferase gene.
SW480 colon carcinoma cells were transduced with a lentiviral vector expressing luciferase with a human Sp5 promoter consisting of a sequence of eight TCF/LEF binding sites. SW480 cells stably expressing the Sp5-Luc reporter gene and a hygromycin resistance gene were selected by treatment with 150 μg/mL of hygromycin for 7 days. These stably transduced SW480 cells were expanded in cell culture and used for all further screening activities. Each compound was dissolved in DMSO as a 10 mM stock and used to prepare compound source plates. Serial dilution (1:3, 10-point dose-response curves starting from 10 μM) and compound transfer was performed using the ECHO 550 (Labcyte, Sunnyvale, Calif.) into 384-well white solid bottom assay plates (Greiner Bio-One) with appropriate DMSO backfill for a final DMSO concentration of 0.1%. For Sp5-Luc reporter gene assays, the cells were plated at 4,000 cells/well in 384-well plates with medium containing 1% fetal bovine serum and incubated overnight at 37° C. and 5% CO2. Following incubation, 20 μl of BrightGlo luminescence reagent (Promega) was added to each well of the 384-well assay plates. The plates were placed on an orbital shaker for 2 min and then luminescence was quantified using the Envision (Perkin Elmer) plate reader. Readings were normalized to DMSO only treated cells, and normalized activities were utilized for EC50 calculations using the dose-response log (inhibitor) vs. response-variable slope (four parameters) nonlinear regression feature available in GraphPad Prism 5.0 (or Dotmatics). For EC50 of >10 μM, the percent inhibition at 10 μM is provided.
For orientation: A reporter such as luciferase makes a cellular process visible.

Assay [2] relates to Primary human fibroblasts derived from IPF patients (LL29 cells) treated with TGF-β1. In words: Inhibition of the fibrotic process: αSMA staining in TGF-β1 treated fibroblasts. Particulars: Fibroblast, 96 h, LL29 fibroblasts treated with TGF-β1, 4 days. The text has this:
Representative compounds were screened using primary human fibroblasts (derived from IPF patients) treated with TGF-β1 to determine their ability to inhibit the fibrotic process.
Primary human fibroblasts derived from IPF patients (LL29 cells) [^1Xiaoqiu Liu, et. al., “Fibrotic Lung Fibroblasts Show Blunted Inhibition by cAMP Due to Deficient cAMP Response Element-Binding Protein Phosphorylation”, Journal of Pharmacology and Experimental Therapeutics (2005), 315(2), 678-687; ^2Watts, K. L., et. al., “RhoA signaling modulates cyclin D1 expression in human lung fibroblasts; implications for idiopathic pulmonary fibrosis”, Respiratory Research (2006), 7(1), 88] were obtained from American Type Culture Collection (ATCC) and expanded in F12 medium supplemented with 15% Fetal Bovine Serum and Penicillin/Streptomycin.
Each compound was dissolved in DMSO as a 10 mM stock and used to prepare compound source plates. Serial dilution (1:2, 11-point dose-response curves from 10 μM to 1.87 nM) and compound transfer was performed using the ECHO 550 (Labcyte, Sunnyvale, Calif.) into 384-well clear bottom assay plates (Greiner Bio-One) with appropriate DMSO backfill for a final DMSO concentration of 0.1%. LL29 cells are plated at 1,500 cells/well in 80 μL/well F12 medium supplemented with 1% Fetal Bovine Serum. One hour after addition of the cells, TGF-β1 (Peprotech; 20 ng/mL) was added to the plates to induce fibrosis (ref. 1 and 2 above). Wells treated with TGF-β1 and containing DMSO were used as controls. Cells were incubated at 37° C. and 5% CO2 for 4 days. Following incubation for 4 days, SYTOX green nucleic acid stain (Life Technologies [Thermo Fisher Scientific]) was added to the wells at a final concentration of 1 μM and incubated at room temperature for 30 min. Cells were then fixed using 4% formaldehyde (Electron Microscopy Sciences), washed 3 times with PBS followed by blocking and permeabilization using 3% Bovine Serum Albumin (BSA; Sigma) and 0.3% Triton X-100 (Sigma) in PBS. Cells were then stained with antibody specific to α-smooth muscle actin (αSMA; Abcam) (ref. 1 and 2 above) in 3% Bovine Serum Albumin (BSA; Sigma) and 0.3% Triton X-100 (Sigma) in PBS, and incubated overnight at 4° C. Cells were then washed 3 times with PBS, followed by incubation with Alexa Flor-647 conjugated secondary antibody (Life Technologies [Thermo Fisher Scientific]) and DAPI at room temperature for 1 hour. Cells were then washed 3 times with PBS and plates were sealed for imaging. αSMA staining was imaged by excitation at 630 nm and emission at 665 nm and quantified using the Compartmental Analysis program on the CellInsight CX5 (Thermo Scientific). Dead or apoptotic cells were excluded from analysis based on positive SYTOX green staining. % of total cells positive for αSMA were counted in each well and normalized to the average of 11 wells treated with TGF-β1 on the same plate using Dotmatics' Studies Software. The normalized averages (fold change over untreated) of 3 replicate wells for each compound concentration were used to create dose-responses curves and EC50 values were calculated using non-linear regression curve fit in the Dotmatics' Studies Software. For EC50 of >10 μM, the percent inhibition at 10 μM is provided.

The next assay concerns SW480 colon cancer cells. In words: Cell viability assay (CellTiter-Blue), four days. Conditions: Homo sapiens, 96 h, CellTiter-Blue cell viability. As for the experimental part: Representative compounds were screened using the following assay procedure to assess the effect on cell viability as described below.
Each compound was dissolved in DMSO as a 10 mM stock and used to prepare compound source plates. Serial dilution (1:3, 8-point dose-response curves from 10 μM to 0.0045 μM) and compound transfer was performed using the ECHO 550 (Labcyte, Sunnyvale, Calif.) into 96-well clear bottom, black-walled plates (Corning-Costar).
Approximately 2×10^3 SW480 colon cancer cells were seeded into each well and allowed to incubate in the presence or absence of compound for four days at 37° C./5% CO2. Eight replicates of DMSO-treated cells served as controls and cells treated with compound were performed in duplicate.
After incubation, 20 μL of CellTiter-Blue (Promega) was added to each well allowed to incubate for approximately 3 hours. This reagent was a buffered solution which contains resazurin, metabolically active cells were able to reduce rezarurin (blue) into resorufin (pink) which was highly fluorescent. This measured fluorescence was used as a readout for cell viability.
After incubation, the plates were read at Ex 560 nm Em 590 nm (Cytation 3, BioTek). Dose-response curves were generated and EC50 concentration values were calculated using non-linear regression curve fit in the GraphPad Prism (San Diego, Calif.) or Dotmatics' Studies Software (Bishops Stortford, UK). For EC50 of >10 μM, the percent inhibition at 10 μM is provided.

In assay [3] the test system is IL-6 in human monocyte cell line (THP-1 cells). In words: IL-6 inhibition in LPS-stimulated THP-1 cells (HTRF). Conditions: IL-6 in LPS-stimulated THP-1 cells, HTRF. As for the experimental part: Human monocyte cell line (THP-1 cells; Catalog # TIB-202, ATCC, Manassas, Va.) were cultured in Roswell Park Memorial Institute (RPMI) 1640 Medium (Catalog #21870-100, Buffalo, N.Y.) with 1% L-glutamine, 1% HEPES, 1% Sodium Pyruvate, 2% Sodium Bicarbonate supplemented with 100 units/mL penicillin, 50 μg/mL streptomycin, 2-mercaptoethanol (0.05 mM) [basal medium] and 10% fetal bovine serum (Catalog #16140089, Life Technologies, Carlsbad, Calif.) at 37° C. and 5% CO2.
THP-1 cells were cultured in basal media with 1% FBS for 24 hours before the start of the assay. Each compound was dissolved in DMSO as a 10 mM stock and used to prepare compound source plates. Serial dilution (1:3, 10-point dose-response curves starting from 10 μM) and compound transfer was performed using the ECHO 550 (Labcyte, Sunnyvale, Calif.) into 384-well white low volume assay plates (Greiner Bio-One) with appropriate DMSO backfill for a final DMSO concentration of 0.1%. THP-1 cells were plated at 5000 cells/well in the 384-well plates and incubated at 37° C. for 2 h. 500 ng/mL of LPS was added after 2 hours and cells were incubated for another 22 hours at 37° C. Plates were spun in a centrifuge for 1 minute at […] and a mixture of anti-IL6 XL665, and anti-IL6 Cryptate diluted in reconstitution buffer (Cisbio Inc.) was added to each well. Following incubation for 3 hrs at room temperature, Homogeneous Time-Resolved Fluorescence (HTRF) was measured using the Envision (Perkin Elmer) at 665 nm and […]. The ratio of fluorescence at 665 nm to 620 nm was used as a readout for IL6 quantification. All samples were processed in duplicate. Readings were normalized to DMSO treated cells and normalized activities were utilized for EC50 calculations using the dose-response log (inhibitor) vs. response-variable slope (four parameters) nonlinear regression feature available in GraphPad Prism 5.0 (or Dotmatics). For EC50 of >10 μM, the percent inhibition at 10 μM is provided.
Background: In TR-FRET formats the signal depends on donor and acceptor labels being close together.

On to `c1ccc(CNCc2cncc(-c3ccc4[nH]nc(-c5nc6c(-c7cccnc7)nccc6[nH]5)c4n3)c2)cc1` [Compound 108, N-Benzyl-1-(5-(3-(4-(pyridin-3-yl)-1H-imidazo[4,5-c]pyridin-2-yl)-1H-pyrazolo [4,3-b]pyridin-5-yl)pyridin-3-yl)methanamine], for which the half-maximal effective concentration (EC50) (in general, the concentration giving half of the maximal effect) in assay [1] amounted to 6780 nM; in assay [2], 9060 nM; in the assay on SW480 colon cancer cells it was 2580 nM; in assay [3], 123 nM.

Turning to `CN1CCN(c2nccc3[nH]c(-c4n[nH]c5ccc(-c6cncc(OC7CCCCC7)c6)nc45)nc23)CC1` [Compound 639, 5-(5-(Cyclohexyloxy)pyridin-3-yl)-3-(4-(4-methylpiperazin-1-yl)-1H-imidazo[4,5-c]pyridin-2-yl)-1H-pyrazolo[4,3-b]pyridine], the EC50 in assay [1] was 2670 nM; in assay [2], 2610 nM; in the assay with SW480 colon cancer cells, 2420 nM; in assay [3], 3420 nM.

On to `Cc1ncc(-c2ccc3[nH]nc(-c4nc5c(-c6cc(F)cc(NCCN(C)C)c6)nccc5[nH]4)c3n2)n1C` [Compound 781, N^1-(3-(2-(5-(1,2-Dimethyl-1H-imidazol-5-yl)-1H-pyrazolo[4,3-b]pyridin-3-yl)-1H-imidazo[4,5-c]pyridin-4-yl)-5-fluorophenyl)-N^2,N^2-dimethylethane-1,2-diamine], for which the EC50 in assay [1] was found to be 1880 nM; in assay [2] it was 3100 nM; in the assay on SW480 colon cancer cells, 6550 nM; in assay [3], 3910 nM.

`CN(C)CCNc1cc(F)cc(-c2nccc3[nH]c(-c4n[nH]c5ccc(-c6cncc(OCc7ccccc7)c6)nc45)nc23)c1` [Compound 790, N^1-(3-(2-(5-(5-(Benzyloxy)pyridin-3-yl)-1H-pyrazolo[4,3-b]pyridin-3-yl)-1H-imidazo[4,5-c]pyridin-4-yl)-5-fluorophenyl)-N^2,N^2-dimethylethane-1,2-diamine]: the concentration giving a half-maximal response (EC50) in assay [1] was determined as 1110 nM; in assay [2] it was 3170 nM; with SW480 colon cancer cells, 1570 nM; in assay [3], 38 nM.

As for `CN(C)CCNc1cc(F)cc(-c2nccc3[nH]c(-c4n[nH]c5ccc(-c6cncc(CNCC7CCCC7)c6)nc45)nc23)c1` [Compound 473, N^1-(3-(2-(5-(5-(((Cyclopentylmethyl)amino)methyl)pyridin-3-yl)-1H-pyrazolo[4,3-b]pyridin-3-yl)-1H-imidazo[4,5-c]pyridin-4-yl)-5-fluorophenyl)-N^2,N^2-dimethylethane-1,2-diamine], the EC50 in assay [1] is 4410 nM; in assay [2], 5060 nM; with SW480 colon cancer cells, 8370 nM; in assay [3] it was 4660 nM.

For `FC1(F)CCN(Cc2cncc(-c3ccc4[nH]nc(-c5nc6c(N7CCCCC7)nccc6[nH]5)c4n3)c2)C1` [Compound 194, 5-(5-((3,3-Difluoropyrrolidin-1-yl)methyl)pyridin-3-yl)-3-(4-(piperidin-1-yl)-1H-imidazo[4,5-c]pyridin-2-yl)-1H-pyrazolo[4,3-b]pyridine], the EC50 was found to be 3390 nM in assay [1], 2240 nM in assay [2], 1960 nM in the assay on SW480 colon cancer cells and 2490 nM in assay [3].

Turning to `c1ccc(-c2ccc3[nH]nc(-c4nc5cnccc5[nH]4)c3n2)nc1` [Compound 280, 3-(1H-Imidazo[4,5-c]pyridin-2-yl)-5-(pyridin-2-yl)-1H-pyrazolo[4,3-b]pyridine], the EC50 in assay [1] was found to be 1320 nM; in assay [2] it was 7230 nM; in the assay with SW480 colon cancer cells it was 5720 nM; in assay [3], 1900 nM.

Turning to `Oc1cncc(-c2ccc3[nH]nc(-c4nc5c(N6CCCCC6)nccc5[nH]4)c3n2)c1` [Compound 613, 5-(3-(4-(Piperidin-1-yl)-1H-imidazo[4,5-c]pyridin-2-yl)-1H-pyrazolo[4,3-b]pyridin-5-yl)pyridin-3-ol], the concentration for a half-maximal effect (EC50) in assay [1] is 2200 nM; in assay [2], 9460 nM; in the assay on SW480 colon cancer cells it was 9370 nM; in assay [3], 3980 nM.

Consider `Cc1ncc(-c2ccc3[nH]nc(-c4nc5c(-c6cccc(F)c6)nccc5[nH]4)c3n2)n1C` [Compound 509, 5-(1,2-Dimethyl-1H-imidazol-5-yl)-3-(4-(3-fluorophenyl)-1H-imidazo[4,5-c]pyridin-2-yl)-1H-pyrazolo[4,3-b]pyridine], for which the EC50 in assay [1] came out at 36 nM; in assay [2], 202 nM; in the assay with SW480 colon cancer cells it was 688 nM; in assay [3] it was 437 nM.

Source of the values: US10195185B2, “3-(1H-imidazo[4,5-C]pyridin-2-yl)-1H-pyrazolo[4,3-B]pyridines and therapeutic uses thereof” (Samumed, LLC, priority 2015, dated 2019).
